Test results as given in patent EP1874270B1, “PHARMACEUTICAL AEROSOL COMPOSITION” (priority 2005, dated 2006).
Values belong to the molecule of their own block, whether it stands above or below them.

Columns and labels:
[1] = Inhalation experiments: local anesthetic effect; format: in vivo; details: inhalation of 0.55 % (w/v) lidocaine base in colloidal tyloxapol/DMPC solution (Example 5); effect undesirable in this context
From the text: Sometimes, but not necessarily, bad taste is accompanied by mucosal irritations caused by the substance. This occurs in various degrees which, in the case of application by inhalation, may range from slight irritation of the pharynx and/or respiratory tract to cough, fits of coughing, bronchoconstrictions and bronchospasms. […] In a further embodiment of the invention, the preparation accordingly contains an active agent which is irritating to the mucosa or causes coughing or bronchoconstrictions. In this connection, active agents from the group of corticoids, betamimetics, anti-cholinergics, anesthetics and antiinfectives are again preferred.
After a sterile filtration, the colloidal solution was filled into pre-sterilized single dose containers (0.5 - 3 ml) of glass and polypropylene.

[2] = Colloidal solubilization of the active agent with non-ionic surfactant and lecithin
[3] = format: physicochemical
Procedure: Buffered aqueous solutions of tyloxapol, DMPC and tyloxapol in a mixture with DMPC were prepared. The saturation solubility of budesonide in these solutions was measured by adding an excess of budesonide and treating the sample with heat and ultrasound and subsequently allowing it to stand for equilibration. The equilibrated samples were filtered through a membrane filter with a pore width of 0.22 µm and the content of budesonide in the filtrate was determined. […]

[4] = Polysorbate 80 0.10 wt.-%, Lipoid S100 1.0 wt.-%, ratio 1:10
[5] = Polysorbate 80 0.50 wt.-%, Lipoid S100 3.0 wt.-%, ratio 1 : 6

SMILES: CCN(CC)CC(=O)Nc1c(C)cccc1C [lidocaine]
local anesthetic effect of lidocaine [1]: reduced

Budesonide solubilized [2, 4]: 0.36 mg/mL
Budesonide solubilized ([2]; Polysorbate 80 0.15 wt.-%, Lipoid S100 1.5 wt.-%, ratio 1:10): 0.43 mg/mL
Budesonide solubilized ([2]; Polysorbate 80 0.25 wt.-%, Lipoid S100 1.5 wt.-%, ratio 1 : 6): 0.47 mg/mL
Budesonide solubilized ([2]; Polysorbate 80 0.40 wt.-%, Lipoid S100 1.5 wt.-%, ratio 1 : 3.75 (for comparison and/or reference only)): 0.50 mg/mL
Budesonide solubilized ([2]; Polysorbate 80 0.50 wt.-%, Lipoid S100 2.0 wt.-%, ratio 1:4 (for comparison and/or reference only)): 0.83 mg/mL
Budesonide solubilized [2, 5]: 1.09 mg/mL
Budesonide solubilized ([2]; Solutrol HS 15 0.10 wt.-%, Lipoid S100 1.5 wt.-%, ratio 1 : 15): 0.43 mg/mL
Budesonide solubilized ([2]; Solutrol HS 15 0.25 wt.-%, Lipoid S100 1.5 wt.-%, ratio 1 : 6): 0.47 mg/mL
Budesonide solubilized ([2]; Solutrol HS 15 0.50 wt.-%, Lipoid S100 1.5 wt.-%, ratio 1 : 3.33 (for comparison and/or reference only)): 0.48 mg/mL
Budesonide solubilized ([2]; Vitamin E TPGS 0.10 wt.-%, Lipoid S100 1.0 wt.-%, ratio 1 : 10): 0.37 mg/mL
Budesonide solubilized ([2]; Vitamin E TPGS 0.10 wt.-%, Lipoid S100 1.5 wt.-%, ratio 1 : 15): 0.44 mg/mL
Budesonide solubilized ([2]; Vitamin E TPGS 0.25 wt.-%, Lipoid S100 1.5 wt.-%, ratio 1 : 6): 0.46 mg/mL
Budesonide solubilized ([2]; Vitamin E TPGS 0.50 wt.-%, Lipoid S100 1.5 wt.-%, ratio 1 : 3.33 (for comparison and/or reference only)): 0.48 mg/mL
Budesonide solubilized ([2]; Vitamin E TPGS 0.50 wt.-%, Lipoid S100 2.0 wt.-%, ratio 1 : 4 (for comparison and/or reference only)): 0.80 mg/mL
Budesonide solubilized ([2]; Vitamin E TPGS 0.50 wt.-%, Lipoid S100 3.0 wt.-%, ratio 1 : 6): 1.09 mg/mL
budesonide colloidally solubilized at a concentration of ([2]; vitamin E TPGS 0.04 wt.-%, polysorbate 80 0.06 wt.-%, lecithin 1.0 wt.-%): 0.38 mg/mL
budesonide colloidally solubilized at a concentration of ([2]; vitamin E TPGS 0.2 wt.-%, polysorbate 80 0.3 wt.-%, lecithin 3.0 wt.-%): 0.95 mg/mL
saturation concentration of budesonide in DMPC solutions [3]: could not be increased
SMILES: CCCC1O[C@@H]2C[C@H]3[C@@H]4CCC5=CC(=O)C=C[C@]5(C)[C@H]4[C@@H](O)C[C@]3(C)[C@]2(C(=O)CO)O1 (stereo partly drawn) [Budesonide, budesonide]

Fluticasone prop. solubilized [2, 4]: 0.07 mg/mL
Fluticasone prop. solubilized [2, 5]: 0.18 mg/mL
SMILES: CCC(=O)O[C@]1(C(=O)SCF)[C@H](C)C[C@H]2[C@@H]3C[C@H](F)C4=CC(=O)C=C[C@]4(C)[C@@]3(F)[C@@H](O)C[C@@]21C [Fluticasone prop., fluticasone propionate]
